Results reported in patent US20220041641A1, “QUATERNARY AMMONIUM SALTS AS INHIBITORS OF TRIMETHYLAMINE PRODUCTION” (Senda Biosciences, Inc., priority 2018, published 2022).
pIC50: −log10 of the molar value. Structures can show the parent of a compound that is named as a salt.

biological target: CutC from Proteus mirabilis (Proteus mirabilis, UniProt B4EYG1); experiment: Cell-based assay for TMA production from a native producer (P. mirabilis); settings: d9-TMA from 1 mM d9-choline, 5 h, 37° C.; value 10 given when no fit or % TMA remaining at 10 μM higher than 15%; read-out: Average IC50 Whole cell P. mirabilis
Text: In each bacterium, CutC was modified into its activated form by a cognate activating enzyme, CutD (protein EDU36696.1 for C. sporogenes; protein WP_004249185.1 for P. mirabilis). […] Trimethylamine may subsequently be converted by human enzymes such as flavin monooxygenase 3 to trimethylamine N-oxide, which might be associated with negative health consequences in humans.
A compound's ability to inhibit CutC from Proteus mirabilis and C. sporogenes from converting choline into trimethylamine was tested in cells as described. A BHI blood plate was inoculated with a frozen stock of Proteus mirabilis or Clostridium sporogenes under anaerobic conditions. A single colony was isolated from the plate and inoculated into 5 mL BHI supplemented with 1 mM choline under anaerobic conditions. The liquid cultures were grown overnight at 37° C.
To prepare each sample, 300 μL of the saturated culture was then inoculated into a 30 mL dilution blank under anaerobic conditions. 1 mM (trimethyl-d9)-choline and a sufficient amount of a compound to obtain a final concentration of 10 μM were added to the inoculated dilution blank. […] The mixture was incubated at 37° C. for 5 h. […] After centrifugation, the samples were analyzed by LCMS to determine the amount of d9-TMA produced.

CutC from Proteus mirabilis, sequence (B4EYG1 entry or part of it): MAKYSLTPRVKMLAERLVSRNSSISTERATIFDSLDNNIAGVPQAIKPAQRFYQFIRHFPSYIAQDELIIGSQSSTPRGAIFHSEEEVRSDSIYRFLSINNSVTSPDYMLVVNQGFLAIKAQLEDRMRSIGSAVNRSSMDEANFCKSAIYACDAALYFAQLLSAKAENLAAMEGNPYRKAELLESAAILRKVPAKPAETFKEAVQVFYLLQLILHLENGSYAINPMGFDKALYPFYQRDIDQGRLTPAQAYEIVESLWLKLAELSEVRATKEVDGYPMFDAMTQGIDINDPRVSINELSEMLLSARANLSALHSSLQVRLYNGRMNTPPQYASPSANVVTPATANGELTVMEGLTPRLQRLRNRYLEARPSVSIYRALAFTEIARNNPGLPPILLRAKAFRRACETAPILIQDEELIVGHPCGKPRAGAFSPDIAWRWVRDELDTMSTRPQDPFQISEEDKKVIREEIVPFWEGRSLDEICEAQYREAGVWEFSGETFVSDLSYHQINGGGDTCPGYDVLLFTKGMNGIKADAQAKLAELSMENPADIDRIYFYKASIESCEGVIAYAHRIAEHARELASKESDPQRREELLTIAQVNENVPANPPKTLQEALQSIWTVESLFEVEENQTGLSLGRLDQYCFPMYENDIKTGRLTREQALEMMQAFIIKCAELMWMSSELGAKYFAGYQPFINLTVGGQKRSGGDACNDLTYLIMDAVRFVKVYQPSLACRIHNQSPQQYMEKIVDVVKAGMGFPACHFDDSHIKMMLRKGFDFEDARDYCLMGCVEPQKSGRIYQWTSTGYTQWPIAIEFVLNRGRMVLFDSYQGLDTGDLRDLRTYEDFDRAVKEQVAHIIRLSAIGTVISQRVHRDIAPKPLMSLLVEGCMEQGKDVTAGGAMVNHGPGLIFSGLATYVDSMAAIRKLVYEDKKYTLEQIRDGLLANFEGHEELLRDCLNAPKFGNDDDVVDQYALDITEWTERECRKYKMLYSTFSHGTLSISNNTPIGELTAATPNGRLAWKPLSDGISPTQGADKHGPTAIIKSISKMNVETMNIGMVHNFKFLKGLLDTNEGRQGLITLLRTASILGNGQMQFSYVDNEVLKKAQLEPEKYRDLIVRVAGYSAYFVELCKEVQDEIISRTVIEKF
CutC from Proteus mirabilis, sequence (B4EYG0 entry or part of it, further chain): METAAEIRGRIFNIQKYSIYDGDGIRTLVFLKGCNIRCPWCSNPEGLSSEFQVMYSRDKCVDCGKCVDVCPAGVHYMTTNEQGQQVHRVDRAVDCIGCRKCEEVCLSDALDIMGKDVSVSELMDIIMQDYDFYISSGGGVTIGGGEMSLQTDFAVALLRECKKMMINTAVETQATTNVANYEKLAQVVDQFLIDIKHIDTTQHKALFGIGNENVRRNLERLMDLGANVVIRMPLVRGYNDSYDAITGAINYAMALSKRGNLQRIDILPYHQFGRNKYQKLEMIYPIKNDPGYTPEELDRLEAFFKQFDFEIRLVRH

Row | SMILES | pIC50
1 | C#CC[N+](C)(C)CC(=O)O[C@H]1CO[C@H]2[C@@H]1OC[C@H]2OC(=O)C[N+](C)(C)CC#C [Compound 69, N,N′-((((3R,3aR,6S,6aR)-hexahydrofuro[3,2-b]furan-3,6-diyl)bis(oxy))bis(2-oxoethane-2,1-diyl))bis(N,N-dimethylprop-2-yn-1-aminium) bistrifluoroacetate] | ≤ 5.00
2 | C#CC[N+](C)(C)CCO[C@H]1CO[C@H]2[C@@H]1OC[C@H]2OCC[N+](C)(C)CC#C [Compound 71, N,N′-((((3R,3aR,6S,6aR)-hexahydrofuro[3,2-b]furan-3,6-diyl)bis(oxy))bis(ethane-2,1-diyl))bis(N,N-dimethylprop-2-yn-1-aminium) bistrifluoroacetate] | ≤ 5.00
3 | C#CC[N+](C)(C)CCO[C@@H]1O[C@H](CO)[C@@H](O)[C@H](O)[C@H]1O [Compound 106, N,N-dimethyl-N-(2-(((3R,4S,5S,6R)-3,4,5-trihydroxy-6-(hydroxymethyl)tetrahydro-2H-pyran-2-yl)oxy)ethyl)prop-2-yn-1-aminium 2,2,2-trifluoroacetate] | ≤ 5.00
4 | C[N+]12CCC(CC1)[C@H](O)C2 [Compound 148, (1s,4s)-3-hydroxy-1-methylquinuclidin-1-ium] | ≤ 5.00
5 | C[N+]12CCC(O)(CC1)CC2 [Compound 149, 4-hydroxy-1-methylquinuclidin-1-ium] | ≤ 5.00
6 | C#CC[C@@H](C(=O)O)[N+](C)(C)C [Compound 152, (S)-1-carboxy-N,N,N-trimethylbut-3-yn-1-aminium Iodide] | ≤ 5.00
7 | C#CC[N+](C)(CF)CCO (stereo not drawn) [Compound 153, N-(fluoromethyl)-N-(2-hydroxyethyl)-N-methylprop-2-yn-1-aminium Iodide] | 7.70
8 | C#CC[N+]1(CCO)CCCCC1 [Compound 154, 1-(2-hydroxyethyl)-1-(prop-2-yn-1-yl)piperidin-1-ium Bromide] | ≤ 5.00
9 | C=C(C[N+](C)(C)C)C(=O)O [Compound 155, 2-carboxy-N,N,N-trimethylprop-2-en-1-aminium Bromide] | 5.59
10 | C=C(C[N+](C)(C)CC(=C)C(=O)O)C(=O)O [Compound 156, 2-carboxy-N-(2-carboxyallyl)-N,N-dimethylprop-2-en-1-aminium Bromide] | ≤ 5.00
11 | C[N+](C)(CCO)CCO [Compound 157, 2-hydroxy-N-(2-hydroxyethyl)-N,N-dimethylethan-1-aminium Iodide] | ≤ 5.00
12 | C#CC[N+]1(CC(=O)O)CCCCC1 [Compound 160, 1-(carboxymethyl)-1-(prop-2-yn-1-yl)piperidin-1-ium bromide] | ≤ 5.00
13 | C[N+]1(CF)CCCC[C@@H]1CO (stereo partly drawn) [Compound 161, (2R)-1-(fluoromethyl)-2-(hydroxymethyl)-1-methylpiperidin-1-ium Iodide] | ≤ 5.00
14 | C#CC[N+](C)(C)C[C@@H](C)C(=O)O [Compound 162, (R)—N-(2-carboxypropyl)-N,N-dimethylprop-2-yn-1-aminium Chloride] | 6.54
15 | C#CC[N+]1(CF)CCCCC1 [Compound 164, 1-(fluoromethyl)-1-(prop-2-yn-1-yl)piperidin-1-ium Iodide] | ≤ 5.00
16 | C#CC[N+](C)(C)CC#C [Compound 165, N,N-dimethyl-N-(prop-2-yn-1-yl)prop-2-yn-1-aminium Bromide] | 5.67
17 | C#CC[N+](C)(C)C[C@H](C)C(=O)O [Compound 166, (S)—N-(2-carboxypropyl)-N,N-dimethylprop-2-yn-1-aminium Chloride] | 5.90
18 | C=C(CO)C[N+](C)(C)C [Compound 167, (3-hydroxy-2-methylidenepropyl)trimethylazanium trifluoroacetate] | ≤ 5.00
19 | C#CC[N+](C)(C)CC#N [Compound 168, (cyanomethyl)dimethyl(prop-2-yn-1-yl)azanium Bromide] | 6.06
20 | C[N+](C)(C)CC#N [Compound 169, (cyanomethyl)trimethylazanium Iodide] | ≤ 5.00
21 | C=C(C[N+](C)(C)CF)C(=O)O [Compound 171, (2-carboxy-2-methylideneethyl)(fluoromethyl)dimethylazanium Iodide] | ≤ 5.00
22 | C[N+](CF)(CCO)C1CC1 (stereo not drawn) [Compound 172, N-(fluoromethyl)-N-(2-hydroxyethyl)-N-methylcyclopropanaminium Iodide] | ≤ 5.00
23 | C[N+](C)(CCO)Cc1ccccc1 [Compound 173, benzyl(2-hydroxyethyl)dimethylazanium] | ≤ 5.00
24 | C#CC[N+](C)(C)C[C@@H](C)C(=O)OC [Compound 174, [(2R)-3-methoxy-2-methyl-3-oxopropyl]dimethyl(prop-2-yn-1-yl)azanium] | 6.77

Row | SMILES | pIC50
25 | C#CC[N+](C)(C)C[C@H](C)C(=O)OC [Compound 175, [(2S)-3-methoxy-2-methyl-3-oxopropyl]dimethyl(prop-2-yn-1-yl)azanium] | 6.77
26 | CC1OC1C[N+](C)(C)C (stereo not drawn) [Compound 176, trimethyl[(3-methyloxiran-2-yl)methyl]azanium] | ≤ 5.00
27 | C#CC[N+](C)(C)Cc1nnn[nH]1 [Compound 177, dimethyl(prop-2-yn-1-yl)[(1H-1,2,3,4-tetrazol-5-yl)methyl]azanium] | 5.12
28 | C[N+](C)(C)CC1CC1 [Compound 178, (cyclopropylmethyl)trimethylazanium Iodide] | ≤ 5.00
29 | C#CC[N+](C)(C)CF [Compound 179, (fluoromethyl)dimethyl(prop-2-yn-1-yl)azanium Iodide] | 6.96
30 | C#CC[N+](C)(C)CC1OC1C (stereo not drawn) [Compound 181, dimethyl[(3-methyloxiran-2-yl)methyl](prop-2-yn-1-yl)azanium] | < 5.00
31 | C=CC[N+](C)(C)CCO [Compound 182, (2-hydroxyethyl)dimethyl(prop-2-en-1-yl)azanium Bromide] | 5.50
32 | C#CC[N+](C)(C)CCN [Compound 183, (2-aminoethyl)dimethyl(prop-2-yn-1-yl)azanium] | < 5.00
33 | C[N+](C)(CCO)CC1COC1 [Compound 184, (2-hydroxyethyl)dimethyl[(oxetan-3-yl)methyl]azanium Bromide] | < 5.00
34 | C#CC[N+]1(CF)CCCC1 [Compound 187, 1-(fluoromethyl)-1-(prop-2-yn-1-yl)pyrrolidin-1-ium] | 6.12
35 | C#CC[N+]1(CC#C)CCCC1 [Compound 188, 1,1-bis(prop-2-yn-1-yl)pyrrolidin-1-ium Bromidebromide] | < 5.00
36 | C=C(C[N+](C)(C)CC#N)C(=O)OC [Compound 189, N-(cyanomethyl)-2-(methoxycarbonyl)-N,N-dimethylprop-2-en-1-aminium Bromide] | < 5.00
37 | C#CC[N+](C)(C)CC1(C(=O)OC)CC1 [Compound 190, N-((1-(methoxycarbonyl)cyclopropyl)methyl)-N,N-dimethylprop-2-yn-1-aminium Bromide] | 5.89
38 | C#CC[N+](C)(C)CCOCCO [Compound 191, [2-(2-hydroxyethoxy)ethyl]dimethyl(prop-2-yn-1-yl)azanium] | 5.66
39 | C#CC[N+](C)(C)CCNC(=O)OC(C)(C)C [Compound 192, tert-butyl N-{2-[dimethyl(prop-2-yn-1-yl)azaniumyl]ethyl}carbamate Bromide] | < 5.00
40 | C[N+](C)(CCO)C(F)F [Compound 193, (difluoromethyl)(2-hydroxyethyl)dimethylazanium] | 5.86
41 | C[N+](C)(CCO)CC1CCC1 [Compound 194, (cyclobutylmethyl)(2-hydroxyethyl)dimethylazanium Bromide] | < 5.00
42 | CSC[N+](C)(C)CCO [Compound 195, (2-hydroxyethyl)dimethyl[(methylsulfanyl)methyl]azanium] | < 5.00
43 | C#CC[N+](C)(C)CSC [Compound 196, dimethyl[(methylsulfanyl)methyl](prop-2-yn-1-yl)azanium] | 5.11
44 | C#CC[N+](C)(C)CC(C)=O [Compound 197, dimethyl(2-oxopropyl)(prop-2-yn-1-yl)azanium Bromide] | 5.30
45 | C[N+](C)(CCO)C1CCC1 [Compound 199, N-(2-hydroxyethyl)-N,N-dimethylcyclobutanaminium] | < 5.00
46 | C#CC[N+]1(CC#C)CC[C@@H](O)C1 [Compound 200, (3R)-3-hydroxy-1,1-bis(prop-2-yn-1-yl)pyrrolidin-1-ium] | 5.56
47 | C#CC[N+]1(CC#C)CCCN1 [Compound 201, 1,1-bis(prop-2-yn-1-yl)pyrazolidin-1-ium Bromide] | < 5.00

same assay, conditions: read-out: Average IC50 Whole cell P. mirabilis; d9-TMA from 1 mM d9-choline, 5 h, 37° C.; value 10 given when no fit or % TMA remaining at 10 μM higher than 15%

Row | SMILES | pIC50
48 | C[N+](C)(C)CCC[PH](=O)O [Compound 147, 3-(hydroxyhydrophosphoryl)-N,N,N-trimethylpropan-1-aminium Chloridechloridechloridechloridechloride] | ≤ 5.00
49 | C[N+](C)(C)CCCl [Compound 180] | < 5.00
50 | C[N+](C)(CCO)CCF [Compound 186, (2-fluoroethyl)(2-hydroxyethyl)dimethylazanium] | < 5.00
51 | C[N+](C)(CCO)CCCl [Compound 198, (2-chloroethyl)(2-hydroxyethyl)dimethylazanium Iodide] | < 5.00
